Assays:
[1] = 298.15 K; 101.33 kPa; Liquid; Vibrating tube method
[2] = refractive index (Na D-line) (dimensionless); settings: 298.15 K; 101.33 kPa; Liquid; Standard Abbe refractometry
[3] = excess molar enthalpy (molar enthalpy of mixing); xn = mol fraction of the nth substance listed; settings: 298.15 K, 101 kPa, Liquid, Flow calorimetry
[4] = xn = mol fraction of the nth substance listed; settings: 298.15 K, 101 kPa, Liquid, Vibrating tube method

CC(Cl)CCl (centres undefined) [1,2-dichloropropane]
Settings | mass density [kg/m3] | refractive index
[1] | 1149.03 | –
[2] | – | 1.43656

CCOCCOCCOCCO [2-(2-(2-ethoxyethoxy)ethoxy)ethanol]
Settings | mass density [kg/m3] | refractive index
[1] | 1016.19 | –
[2] | – | 1.43623

CCOCCOCCOCCO [2-(2-(2-ethoxyethoxy)ethoxy)ethanol] + CC(Cl)CCl
Settings | excess molar enthalpy [kcal/mol] | mass density [kg/m3]
[3], x2 = 0.067 | -0.0506 | –
[3], x2 = 0.101 | -0.0657 | –
[3], x2 = 0.164 | -0.104 | –
[3], x2 = 0.195 | -0.121 | –
[3], x2 = 0.253 | -0.145 | –
[3], x2 = 0.308 | -0.1638 | –
[3], x2 = 0.36 | -0.1773 | –
[3], x2 = 0.41 | -0.1859 | –
[3], x2 = 0.457 | -0.1887 | –
[3], x2 = 0.501 | -0.1888 | –
[3], x2 = 0.544 | -0.1854 | –
[3], x2 = 0.604 | -0.174 | –
[3], x2 = 0.66 | -0.1571 | –
[3], x2 = 0.695 | -0.144 | –
[3], x2 = 0.745 | -0.122 | –
[3], x2 = 0.807 | -0.0893 | –
[3], x2 = 0.85 | -0.0656 | –
[3], x2 = 0.904 | -0.036 | –
[3], x2 = 0.954 | -0.0131 | –
[4], x2 = 0.0522 | – | 1020.53
[4], x2 = 0.1019 | – | 1024.84
[4], x2 = 0.1497 | – | 1029.19
[4], x2 = 0.2027 | – | 1034.17
[4], x2 = 0.2538 | – | 1039.19
[4], x2 = 0.3014 | – | 1044.06
[4], x2 = 0.3475 | – | 1048.98
[4], x2 = 0.4037 | – | 1055.22
[4], x2 = 0.4507 | – | 1060.69
[4], x2 = 0.5006 | – | 1066.74
[4], x2 = 0.553 | – | 1073.37
[4], x2 = 0.6023 | – | 1079.92
[4], x2 = 0.6499 | – | 1086.58
[4], x2 = 0.7036 | – | 1094.48
[4], x2 = 0.7524 | – | 1102.1
[4], x2 = 0.8009 | – | 1110.06
[4], x2 = 0.8494 | – | 1118.49
[4], x2 = 0.8988 | – | 1127.79
[4], x2 = 0.9495 | – | 1138.04

CCCOCCOCCO [2-(2-propoxyethoxy)ethanol]
Settings | mass density [kg/m3] | refractive index
[1] | 962.74 | –
[2] | – | 1.42727

CCCOCCOCCO [2-(2-propoxyethoxy)ethanol] + CC(Cl)CCl
Settings | excess molar enthalpy [kcal/mol] | mass density [kg/m3]
[3], x2 = 0.06 | -0.0351 | –
[3], x2 = 0.119 | -0.0599 | –
[3], x2 = 0.147 | -0.0709 | –
[3], x2 = 0.202 | -0.0895 | –
[3], x2 = 0.255 | -0.103 | –
[3], x2 = 0.306 | -0.1117 | –
[3], x2 = 0.355 | -0.116 | –
[3], x2 = 0.402 | -0.1173 | –
[3], x2 = 0.447 | -0.1153 | –
[3], x2 = 0.511 | -0.107 | –
[3], x2 = 0.552 | -0.0989 | –
[3], x2 = 0.592 | -0.0897 | –
[3], x2 = 0.648 | -0.0737 | –
[3], x2 = 0.702 | -0.0561 | –
[3], x2 = 0.753 | -0.0387 | –
[3], x2 = 0.802 | -0.0225 | –
[3], x2 = 0.848 | -0.00722 | –
[3], x2 = 0.907 | 0.00621 | –
[3], x2 = 0.948 | 0.00903 | –
[4], x2 = 0.054 | – | 969.58
[4], x2 = 0.105 | – | 976.29
[4], x2 = 0.1473 | – | 982.03
[4], x2 = 0.203 | – | 989.81
[4], x2 = 0.2494 | – | 996.53
[4], x2 = 0.3 | – | 1004.1
[4], x2 = 0.3488 | – | 1011.66
[4], x2 = 0.4014 | – | 1020.11
[4], x2 = 0.4516 | – | 1028.46
[4], x2 = 0.5005 | – | 1036.91
[4], x2 = 0.5504 | – | 1045.89
[4], x2 = 0.5995 | – | 1055.07
[4], x2 = 0.6509 | – | 1065.09
[4], x2 = 0.7009 | – | 1075.28
[4], x2 = 0.752 | – | 1086.18
[4], x2 = 0.8015 | – | 1097.29
[4], x2 = 0.851 | – | 1109.05
[4], x2 = 0.9018 | – | 1121.84
[4], x2 = 0.9476 | – | 1134.08

COCCOCCOCCO [2-[2-(2-methoxyethoxy)ethoxy]ethanol]
Settings | mass density [kg/m3] | refractive index
[1] | 1043.3 | –
[2] | – | 1.43673

Source: the NIST ThermoML archive (doi:10.1016/j.fluid.2009.06.018)
